This test has as its system Bombyx mori. Nature of the test: Insecticidal activity against third instar larvae of silkworm assessed per gm diet. The class given is functional.

A value given as a limit tells only on which side of the number the result lay.

Compound `C=CC(C)(C)N1c2ccccc2[C@]2(O)C[C@@H]3C(=O)N4/C=C\C(C)(C)c5[nH]c6ccccc6c5/C=C\4C(=O)N3[C@H]12` [OKARAMINE A] came in with an LD50 of 8 µg.
The compound `CO[C@@H]1[C@]2(O)C(=O)N3/C=C\C(C)(C)c4[nH]c5ccccc5c4/C=C\3C(=O)N2[C@]23[C@H](C)C(C)(C)N2c2ccccc2[C@]13O` [OKARAMINE B] gave an LD50 of 0.2 µg.
The result for `CC(C)=CCN1c2ccccc2[C@]2(O)C[C@@H]3C(=O)N4/C=C\C(C)(C)c5[nH]c6ccccc6c5/C=C\4C(=O)N3[C@H]12` [OKARAMINE H] reads above 100 µg; that for `CC1(C)/C=C\N2C(=O)[C@H]3C[C@@]4(O)c5ccccc5N[C@H]4N3C(=O)/C2=C/c2c1[nH]c1ccccc21` [OKARAMINE I], above 100 µg.

Source of the values: ChEMBL document CHEMBL1158021, “Okaramines H and I, new okaramine congeners, from aspergillus aculeatus” (1999).
